Test results reported in ChEMBL document CHEMBL1148637, “The combi-targeting concept: synthesis of stable nitrosoureas designed to inhibit the epidermal growth factor receptor (EGFR)” (J Med Chem, 2006).

Legend:
[1] = test system: NIH3T3; assay: Inhibition of serum-stimulated proliferation of mouse NIH3T3 cell line after 24 hrs; type: functional, cell-based; settings: NIH3T3, 24 h
[2] = molecular target: Epidermal growth factor receptor (Homo sapiens, UniProt P00533); assay: Inhibition of EGFR tyrosine kinase
Sequence of Epidermal growth factor receptor (P00533 whole entry): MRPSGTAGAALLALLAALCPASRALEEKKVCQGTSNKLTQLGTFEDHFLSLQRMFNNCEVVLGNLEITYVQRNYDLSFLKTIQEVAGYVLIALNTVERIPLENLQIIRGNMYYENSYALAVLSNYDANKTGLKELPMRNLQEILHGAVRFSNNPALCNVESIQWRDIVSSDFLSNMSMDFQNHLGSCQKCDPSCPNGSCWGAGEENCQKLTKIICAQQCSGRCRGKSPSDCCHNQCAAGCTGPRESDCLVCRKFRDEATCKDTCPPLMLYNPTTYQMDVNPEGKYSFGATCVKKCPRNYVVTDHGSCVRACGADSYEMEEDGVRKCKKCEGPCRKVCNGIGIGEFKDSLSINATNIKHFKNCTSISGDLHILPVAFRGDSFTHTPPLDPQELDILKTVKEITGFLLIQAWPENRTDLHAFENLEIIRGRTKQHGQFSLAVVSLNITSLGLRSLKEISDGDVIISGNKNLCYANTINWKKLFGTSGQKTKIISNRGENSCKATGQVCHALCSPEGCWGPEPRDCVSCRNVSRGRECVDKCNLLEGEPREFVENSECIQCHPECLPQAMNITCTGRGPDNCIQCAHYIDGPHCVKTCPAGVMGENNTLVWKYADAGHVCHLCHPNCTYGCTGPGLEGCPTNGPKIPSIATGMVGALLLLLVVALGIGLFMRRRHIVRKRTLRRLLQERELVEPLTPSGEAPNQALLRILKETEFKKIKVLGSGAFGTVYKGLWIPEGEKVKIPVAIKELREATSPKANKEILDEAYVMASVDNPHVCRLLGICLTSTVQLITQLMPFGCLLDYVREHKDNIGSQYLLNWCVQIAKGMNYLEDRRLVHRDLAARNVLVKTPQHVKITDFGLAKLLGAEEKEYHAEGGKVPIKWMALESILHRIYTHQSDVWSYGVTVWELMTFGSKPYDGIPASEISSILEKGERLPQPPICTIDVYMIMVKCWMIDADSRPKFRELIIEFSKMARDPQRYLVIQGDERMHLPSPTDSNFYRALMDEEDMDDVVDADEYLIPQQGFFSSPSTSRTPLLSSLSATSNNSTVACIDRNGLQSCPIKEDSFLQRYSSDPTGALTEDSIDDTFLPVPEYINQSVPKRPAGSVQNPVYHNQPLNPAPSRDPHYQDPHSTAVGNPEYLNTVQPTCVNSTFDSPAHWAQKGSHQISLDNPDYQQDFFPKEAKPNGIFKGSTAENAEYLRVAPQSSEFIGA

SMILES	IC50 [1] [µM]	IC50 [2] [µM]
O=C(NCCCl)Nc1ccc2ncnc(Nc3cccc(Br)c3)c2c1	35.9	0.018
Cc1cccc(Nc2ncnc3ccc(NC(=O)NCCCl)cc23)c1	31	0.676
CNc1ccc2ncnc(Nc3cccc(C)c3)c2c1	42.8	0.011
CNc1ccc2ncnc(Nc3cccc(Cl)c3)c2c1	49.8	0.004
Cc1cccc(Nc2ncnc3ccc(N(C)C(=O)N(CCCl)N=O)cc23)c1	16.5	
CN(C(=O)N(CCCl)N=O)c1ccc2ncnc(Nc3cccc(Cl)c3)c2c1	11.7	0.204
O=C(NCCCl)Nc1ccc2ncnc(Nc3cccc(Cl)c3)c2c1	157	0.022
Cc1cccc(Nc2ncnc3ccc(NC(=O)N(CCCl)N=O)cc23)c1	78.5	1.06
O=NN(CCCl)C(=O)Nc1ccc2ncnc(Nc3cccc(Cl)c3)c2c1	157	
O=NN(CCCl)C(=O)Nc1ccc2ncnc(Nc3cccc(Br)c3)c2c1	36.4	0.047
CN(C(=O)N(CCCl)N=O)c1ccc2ncnc(Nc3cccc(Br)c3)c2c1	10.8	0.294
Cc1cccc(Nc2ncnc3ccc(N)cc23)c1	44.2	
Nc1ccc2ncnc(Nc3cccc(Cl)c3)c2c1	97	
CNc1ccc2ncnc(Nc3cccc(Br)c3)c2c1	17.6	0.005
Nc1ccc2ncnc(Nc3cccc(Br)c3)c2c1	26.7	
